ChEMBL document CHEMBL3734692, “Design and synthesis of 2-oxindole based multi-targeted inhibitors of PDK1/Akt signaling pathway for the treatment of glioblastoma multiforme” (Eur J Med Chem, 2015)
Calls of active or inactive are those of the source. The calls are words filed in the database; no cut-off is given here.

How the values were obtained:
ASPC1 = experiment: Cytotoxicity against human AsPC1 cells assessed as cell viability 10 uM after 72 hrs by cell counting analysis relative to control; type: functional
[1] = molecular target: T1, 3-phosphoinositide-dependent protein kinase 1 (Homo sapiens, UniProt O15530); experiment: Inhibition of PDK1 (unknown origin) incubated for 1 hr by Z'Lyte assay
T1 sequence (O15530 whole entry): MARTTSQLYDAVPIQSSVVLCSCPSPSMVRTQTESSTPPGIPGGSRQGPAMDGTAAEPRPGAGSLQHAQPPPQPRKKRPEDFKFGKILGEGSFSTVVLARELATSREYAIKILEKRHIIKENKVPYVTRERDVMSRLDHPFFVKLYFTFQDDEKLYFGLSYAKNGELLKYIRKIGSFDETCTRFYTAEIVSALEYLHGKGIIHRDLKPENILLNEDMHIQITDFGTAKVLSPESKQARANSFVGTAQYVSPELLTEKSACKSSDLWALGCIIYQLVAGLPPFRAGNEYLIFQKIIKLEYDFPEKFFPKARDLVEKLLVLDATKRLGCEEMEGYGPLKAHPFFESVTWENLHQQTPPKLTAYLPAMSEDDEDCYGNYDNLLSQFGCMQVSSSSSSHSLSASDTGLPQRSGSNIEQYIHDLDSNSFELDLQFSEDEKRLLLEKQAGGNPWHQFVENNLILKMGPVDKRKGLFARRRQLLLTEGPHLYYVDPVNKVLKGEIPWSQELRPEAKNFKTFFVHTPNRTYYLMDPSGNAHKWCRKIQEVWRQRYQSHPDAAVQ

[2] = molecular target: RAC-alpha serine/threonine-protein kinase (Homo sapiens) (UniProt P31749); experiment: Inhibition of recombinant Akt1 (unknown origin) incubated for 1 hr by Z'Lyte assay
Chain of RAC-alpha serine/threonine-protein kinase (Homo sapiens) (P31749 whole entry): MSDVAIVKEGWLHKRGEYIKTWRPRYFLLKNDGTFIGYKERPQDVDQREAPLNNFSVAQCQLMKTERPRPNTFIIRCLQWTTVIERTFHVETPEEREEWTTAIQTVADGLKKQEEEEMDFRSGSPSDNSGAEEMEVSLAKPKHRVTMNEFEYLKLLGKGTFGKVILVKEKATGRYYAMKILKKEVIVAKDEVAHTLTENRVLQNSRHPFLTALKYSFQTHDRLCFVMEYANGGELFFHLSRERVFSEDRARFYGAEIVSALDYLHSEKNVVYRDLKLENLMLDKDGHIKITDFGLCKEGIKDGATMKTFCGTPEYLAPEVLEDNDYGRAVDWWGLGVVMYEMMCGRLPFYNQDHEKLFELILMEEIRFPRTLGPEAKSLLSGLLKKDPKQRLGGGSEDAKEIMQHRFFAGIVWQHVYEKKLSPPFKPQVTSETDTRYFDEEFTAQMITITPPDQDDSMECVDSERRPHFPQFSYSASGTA

U-118-MG = experiment: Antiproliferative activity against human U118MG cells assessed as inhibition of cell growth at 100 uM after 72 hrs by WST1 assay; type: functional, cell-based

SMILES	Activity (ASPC1)	other results
COc1ccc(CNCC(=O)Nc2ccc3c(c2)/C(=C/c2cccs2)C(=O)N3)cc1OC	86.75%	
CS(=O)(=O)Nc1ccc2c(c1)/C(=C/c1cccs1)C(=O)N2	68.06%	IC50 [1]: 6.81 µM; inhibition [2]: inactive
COc1ccc(CNS(=O)(=O)c2ccc3c(c2)/C(=C/c2cccs2)C(=O)N3)cc1OC	84.18%	
CS(=O)(=O)Nc1ccc2c(c1)/C(=C/c1cnc[nH]1)C(=O)N2	73.83%	IC50 [1]: 0.31 µM; inhibition [2]: inactive
Cn1ccnc1/C=C1/C(=O)Nc2ccc(NS(C)(=O)=O)cc21	96.23%	
CS(=O)(=O)c1ccc(NC(=O)Nc2ccc3c(c2)/C(=C/c2cccs2)C(=O)N3)cc1	93.88%	
CSc1ccc(NC(=O)Nc2ccc3c(c2)/C(=C\c2nccn2C)C(=O)N3)cc1	95.13%	
COc1cc2c(cc1OC)CN(CC(=O)Nc1ccc3c(c1)/C(=C/c1cccs1)C(=O)N3)CC2	82.04%	
COc1cc2c(cc1OC)CN(CC(=O)Nc1ccc3c(c1)/C(=C\c1nccn1C)C(=O)N3)CC2	82.34%	
CSc1ccc(NC(=O)Nc2ccc3c(c2)/C(=C/c2cnc[nH]2)C(=O)N3)cc1	82.94%	
Cn1ccnc1/C=C1/C(=O)Nc2ccc(NC(=O)Nc3ccc(S(C)(=O)=O)cc3)cc21	90.57%	
CSc1ccc(NC(=O)Nc2ccc3c(c2)/C(=C/c2cccs2)C(=O)N3)cc1	77.29%	
COc1ccc(CNS(=O)(=O)c2ccc3c(c2)/C(=C\c2nccn2C)C(=O)N3)cc1OC	84.5%	
Cn1nnc2c(C(N)=O)ncn2c1=O		growth inhibition (GI) (U-118-MG): inactive
CS(=O)(=O)c1ccc(NC(=O)Nc2ccc3c(c2)/C(=C/c2cnc[nH]2)C(=O)N3)cc1	82.21%	
